ChEMBL document CHEMBL5233210, “Pyrazolone structural motif in medicinal chemistry: Retrospect and prospect” (Eur J Med Chem, 2020)
In brackets after ≈: the same amount, converted by molar mass.

Experiments:
Streptococcus pyogenes = test: Antibacterial activity against Streptococcus pyogenes; type: functional
Pseudomonas aeruginosa [1] = test: Antibacterial activity against Pseudomonas aeruginosa; type: functional
Escherichia coli [2] = test: Antibacterial activity against Escherichia coli; type: functional
Aspergillus fumigatus = test: Antifungal activity against Aspergillus fumigatus; type: functional
Candida albicans [3] = test: Antifungal activity against Candida albicans; type: functional
HepG2 = test: Cytotoxicity against human HepG2 cells; type: functional, cell-based
PC-3 = test: Cytotoxicity against human PC-3 cells; type: functional, cell-based
Bacillus subtilis = test: Antibacterial activity against Bacillus subtilis assessed as diameter of inhibition zone at 100 ppm; type: functional; details: read-out: DIZ
Streptococcus mutans = test: Antibacterial activity against Streptococcus mutans assessed as diameter of inhibition zone at 100 ppm; type: functional; details: read-out: DIZ
Micrococcus luteus = test: Antibacterial activity against Micrococcus luteus assessed as diameter of inhibition zone at 100 ppm; type: functional; details: read-out: DIZ
Pseudomonas aeruginosa [4] = test: Antibacterial activity against Pseudomonas aeruginosa assessed as diameter of inhibition zone at 100 ppm; type: functional; details: read-out: DIZ
Salmonella typhi = test: Antibacterial activity against Salmonella typhi assessed as diameter of inhibition zone at 100 ppm; type: functional, Salmonella enterica subsp. enterica serovar Typhi; details: Salmonella enterica, read-out: DIZ
Salmonella paratyphi = test: Antibacterial activity against Salmonella paratyphi assessed as diameter of inhibition zone at 100 ppm; type: functional, Salmonella enterica subsp. enterica serovar Paratyphi A; details: Salmonella enterica, read-out: DIZ
Candida albicans [5] = test: Antifungal activity against Candida albicans assessed as diameter of inhibition zone at 100 ppm; type: functional; details: read-out: DIZ
Trichoderma viride = test: Antifungal activity against Trichoderma viride assessed as diameter of inhibition zone at 100 ppm; type: functional; details: read-out: DIZ
Mus musculus [6] = species on record: Mus musculus; test: Antidepressant activity in Swiss albino mouse assessed as change in immobility by forced swim test; type: functional
Mus musculus [7] = species on record: Mus musculus; test: Antidepressant activity in Swiss albino mouse assessed as decrease in immobility time by forced swim test (reference value: 203.3 sec); type: functional
Mus musculus [8] = species on record: Mus musculus; test: Antidepressant activity in Swiss albino mouse assessed as decrease in immobility time by tail suspension test (reference value: 185.8 sec); type: functional
Mus musculus [9] = species on record: Mus musculus; test: Antidepressant activity in Swiss albino mouse assessed as change in immobility by tail suspension test; type: functional
[10] = molecular target: T1, Prostaglandin G/H synthase 1 (Ovis aries, UniProt P05979); test: Inhibition of ovine COX-1
T1 sequence (P05979 whole entry): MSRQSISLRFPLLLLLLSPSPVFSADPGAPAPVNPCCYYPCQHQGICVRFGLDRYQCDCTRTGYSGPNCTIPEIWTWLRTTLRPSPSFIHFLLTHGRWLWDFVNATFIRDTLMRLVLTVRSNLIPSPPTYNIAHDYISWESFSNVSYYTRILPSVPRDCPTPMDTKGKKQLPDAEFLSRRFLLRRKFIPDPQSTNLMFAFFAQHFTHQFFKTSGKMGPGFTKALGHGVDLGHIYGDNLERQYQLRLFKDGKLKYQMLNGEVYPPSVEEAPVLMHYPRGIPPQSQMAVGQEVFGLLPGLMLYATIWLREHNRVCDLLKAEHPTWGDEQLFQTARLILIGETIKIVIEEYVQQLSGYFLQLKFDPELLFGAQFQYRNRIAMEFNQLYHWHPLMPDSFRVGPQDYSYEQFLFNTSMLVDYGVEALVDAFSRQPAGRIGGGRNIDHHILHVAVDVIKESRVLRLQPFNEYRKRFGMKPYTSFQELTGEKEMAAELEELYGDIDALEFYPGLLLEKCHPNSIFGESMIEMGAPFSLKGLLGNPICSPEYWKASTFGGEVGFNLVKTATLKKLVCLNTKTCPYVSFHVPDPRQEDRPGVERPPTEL

[11] = molecular target: T2, Prostaglandin G/H synthase 2 (Ovis aries, UniProt P79208); test: Inhibition of ovine COX-2
T2 sequence (P79208 whole entry): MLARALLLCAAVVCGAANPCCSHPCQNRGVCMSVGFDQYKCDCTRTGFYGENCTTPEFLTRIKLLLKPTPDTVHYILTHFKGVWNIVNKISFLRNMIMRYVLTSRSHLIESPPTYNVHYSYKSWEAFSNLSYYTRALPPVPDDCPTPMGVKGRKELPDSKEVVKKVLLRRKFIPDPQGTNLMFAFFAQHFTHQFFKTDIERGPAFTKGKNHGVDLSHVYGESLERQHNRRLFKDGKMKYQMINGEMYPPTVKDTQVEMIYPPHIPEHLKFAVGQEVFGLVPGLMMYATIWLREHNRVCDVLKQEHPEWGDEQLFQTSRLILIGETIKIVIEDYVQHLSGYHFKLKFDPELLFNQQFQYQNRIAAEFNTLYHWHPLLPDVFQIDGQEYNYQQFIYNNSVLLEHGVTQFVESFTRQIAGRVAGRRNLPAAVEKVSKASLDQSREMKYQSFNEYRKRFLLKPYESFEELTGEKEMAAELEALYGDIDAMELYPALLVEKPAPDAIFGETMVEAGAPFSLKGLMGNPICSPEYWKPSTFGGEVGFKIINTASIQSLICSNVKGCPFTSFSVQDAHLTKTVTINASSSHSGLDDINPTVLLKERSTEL

Ovis aries = species on record: Ovis aries; test: Selectivity index, ratio of IC50 for ovine COX-1 to IC50 for ovine COX-2
Rattus norvegicus [12] = test: Antiinflammatory activity against rat assessed as inhibition of carrageenan-induced paw edema relative to control; type: functional; parameters: concentration or dose not given beside the values
Rattus norvegicus [13] = test: Antiinflammatory activity against rat assessed as inhibition of carrageenan-induced paw edema; type: functional
Escherichia coli [14] = test: Antibacterial activity against Escherichia coli assessed as diameter of inhibition zone at 100 ppm; type: functional; details: read-out: DIZ
Aspergillus niger = test: Antifungal activity against Aspergillus niger assessed as diameter of inhibition zone at 100 ppm; type: functional; details: read-out: DIZ
MCF7 = test: Cytotoxicity against human MCF7 cells; type: functional, cell-based
Ehrlich [15] = test: Cytotoxicity against mouse Ehrlich ascites cells assessed as dead cells at 100 ug/ml; type: functional; details: dose 100 µg/ml
Ehrlich [16] = test: Cytotoxicity against mouse Ehrlich ascites cells assessed as dead cells at 500 ug/ml; type: functional; details: dose 500 µg/ml
Ehrlich [17] = test: Cytotoxicity against mouse Ehrlich ascites cells assessed as dead cells at 25 ug/ml; type: functional; details: dose 25 µg/ml

## CC(=O)OC1CC[C@@]2(C)C(C1)/C(=C1/C(=O)NN=C1N)C[C@H]1[C@@H]3CC[C@H]([C@H](C)CCCC(C)C)[C@@]3(C)CC[C@@H]12 (stereo partly drawn)
Streptococcus pyogenes
  MIC: 50 µg/mL (≈ 95.1 µM)
Pseudomonas aeruginosa [1]
  MIC: 50 µg/mL (≈ 95.1 µM)
Escherichia coli [2]
  MIC: 50 µg/mL (≈ 95.1 µM)
Aspergillus fumigatus
  MIC: 50 µg/mL (≈ 95.1 µM)
Candida albicans [3]
  MIC: 25 µg/mL (≈ 47.5 µM)

## CC/C(=N/NC(=O)c1ccco1)c1c(C)nn(-c2ccccc2)c1O
HepG2
  IC50: 5.69 µg/mL (≈ 16.8 µM)
PC-3
  IC50: 6.8 µg/mL (≈ 20.1 µM)

## CC(C)CCC[C@@H](C)[C@H]1CC[C@H]2[C@@H]3C/C(=C4\C(=O)NN=C4N)C4CCCC[C@]4(C)[C@H]3CC[C@]12C (stereo partly drawn)
Streptococcus pyogenes
  MIC: 50 µg/mL (≈ 107 µM)
Pseudomonas aeruginosa [1]
  MIC: 50 µg/mL (≈ 107 µM)
Escherichia coli [2]
  MIC: 50 µg/mL (≈ 107 µM)
Aspergillus fumigatus
  MIC: 25 µg/mL (≈ 53.4 µM)
Candida albicans [3]
  MIC: 25 µg/mL (≈ 53.4 µM)

## Cc1[nH]n(-c2ccccc2)c(=O)c1C(c1ccc([N+](=O)[O-])cc1[N+](=O)[O-])c1c(O)ccc2ccccc12 (stereo not drawn)
Bacillus subtilis
  zone of inhibition at 100 µg/mL: 22.5 mm
Streptococcus mutans
  zone of inhibition at 100 µg/mL: 14.5 mm
Micrococcus luteus
  zone of inhibition at 100 µg/mL: 21.5 mm
Pseudomonas aeruginosa [4]
  zone of inhibition at 100 µg/mL: 13.5 mm
Salmonella typhi
  zone of inhibition at 100 µg/mL: 20 mm
Salmonella paratyphi
  zone of inhibition at 100 µg/mL: 20 mm
Candida albicans [5]
  zone of inhibition at 100 µg/mL: 28.5 mm
Trichoderma viride
  zone of inhibition at 100 µg/mL: 21.5 mm

## CN(C)CCCN1c2ccccc2CCc2ccccc21 [IMIPRAMINE]
Mus musculus [6]
  Activity: -53.8%
Mus musculus [7]
  Time: 94 s
Mus musculus [8]
  Time: 109 s
Mus musculus [9]
  Activity: -41.3%

## NS(=O)(=O)c1ccc(N2N=C/C(=N/Nc3ccccc3C(=O)O)C2=O)cc1
[10]
  IC50: 4080 nM
[11]
  IC50: 770 nM
Ovis aries
  Ratio IC50: 5.29

## NS(=O)(=O)c1ccc(N2N=C/C(=N/Nc3ccc(C(=O)O)cc3)C2=O)cc1
Rattus norvegicus [12]
  Activity: 72.72%
[10]
  IC50: 3810 nM
[11]
  IC50: 720 nM
Ovis aries
  Ratio IC50: 5.29
Rattus norvegicus [13]
  ED50: 44 µmol/kg

## Cc1[nH]n(-c2ccccc2)c(=O)c1C(c1ccc(Br)c(F)c1)c1c(O)ccc2ccccc12 (stereo not drawn)
Bacillus subtilis
  zone of inhibition at 100 µg/mL: 19.5 mm
Streptococcus mutans
  zone of inhibition at 100 µg/mL: 18 mm
Micrococcus luteus
  zone of inhibition at 100 µg/mL: 16.5 mm
Pseudomonas aeruginosa [4]
  zone of inhibition at 100 µg/mL: 14.5 mm
Salmonella typhi
  zone of inhibition at 100 µg/mL: 20.5 mm
Salmonella paratyphi
  zone of inhibition at 100 µg/mL: 19.5 mm
Candida albicans [5]
  zone of inhibition at 100 µg/mL: 18.5 mm
Trichoderma viride
  zone of inhibition at 100 µg/mL: 10.5 mm

## Nc1cc(=O)n(-c2ccc([N+](=O)[O-])cc2[N+](=O)[O-])[nH]1
Escherichia coli [14]
  zone of inhibition at 100 µg/mL: 15.3 mm
Bacillus subtilis
  zone of inhibition at 100 µg/mL: 18.1 mm
Pseudomonas aeruginosa [4]
  zone of inhibition at 100 µg/mL: 17.4 mm
Aspergillus niger
  zone of inhibition at 100 µg/mL: 15.2 mm

## Cc1ccc(/N=N/c2c(N)n[nH]c2N)cc1
Escherichia coli [14]
  zone of inhibition at 100 µg/mL: 23.1 mm
Bacillus subtilis
  zone of inhibition at 100 µg/mL: 25.3 mm
Pseudomonas aeruginosa [4]
  zone of inhibition at 100 µg/mL: 19.3 mm
Aspergillus niger
  zone of inhibition at 100 µg/mL: 25.5 mm

## O=c1[nH]cc(F)c(=O)[nH]1 [FLUOROURACIL]
MCF7
  IC50: 5.5 µg/mL (≈ 42.3 µM)
Ehrlich [15]
  Activity: 97.3%
Ehrlich [16]
  Activity: 68%
Ehrlich [17]
  Activity: 38.6%
HepG2
  IC50: 7.9 µg/mL (≈ 60.7 µM)
PC-3
  IC50: 8.3 µg/mL (≈ 63.8 µM)

## NS(=O)(=O)c1ccc(N/N=C2/C=NN(c3ccccc3C(=O)O)C2=O)cc1
[10]
  IC50: 3760 nM
[11]
  IC50: 660 nM
Ovis aries
  Ratio IC50: 5.69

## CC1=NN(C(=O)c2ccc3ccccc3c2)C(=O)C1/N=N/c1ccc(Cl)cc1Cl (stereo not drawn)
Mus musculus [6]
  Activity: -51.9%
Mus musculus [7]
  Time: 97.7 s
Mus musculus [8]
  Time: 114.3 s
Mus musculus [9]
  Activity: -38.4%

## CC1=NN(C(=O)c2ccc3ccccc3c2)C(=O)C1/N=N/c1ccc(C)cc1C (stereo not drawn)
Mus musculus [6]
  Activity: -36.3%
Mus musculus [7]
  Time: 129.5 s
Mus musculus [8]
  Time: 111 s
Mus musculus [9]
  Activity: -40.2%

## CC(C)CCC[C@@H](C)[C@H]1CC[C@H]2[C@@H]3C/C(=C4\C(=O)NN=C4N)C4CC(Cl)CC[C@]4(C)[C@H]3CC[C@]12C (stereo partly drawn)
Streptococcus pyogenes
  MIC: 50 µg/mL (≈ 99.6 µM)
Pseudomonas aeruginosa [1]
  MIC: 50 µg/mL (≈ 99.6 µM)
Escherichia coli [2]
  MIC: 100 µg/mL (≈ 199 µM)
Aspergillus fumigatus
  MIC: 50 µg/mL (≈ 99.6 µM)
Candida albicans [3]
  MIC: 50 µg/mL (≈ 99.6 µM)

## Cc1[nH]n(-c2ccccc2)c(=O)c1C(c1ccc(Br)cc1)c1c(O)ccc2ccccc12 (stereo not drawn)
Bacillus subtilis
  zone of inhibition at 100 µg/mL: 18.5 mm
Streptococcus mutans
  zone of inhibition at 100 µg/mL: 29.5 mm
Micrococcus luteus
  zone of inhibition at 100 µg/mL: 18.5 mm
Pseudomonas aeruginosa [4]
  zone of inhibition at 100 µg/mL: 14.5 mm
Salmonella typhi
  zone of inhibition at 100 µg/mL: 19.5 mm
Salmonella paratyphi
  zone of inhibition at 100 µg/mL: 19.5 mm
Candida albicans [5]
  zone of inhibition at 100 µg/mL: 15.5 mm
Trichoderma viride
  zone of inhibition at 100 µg/mL: 13.5 mm
